Measurements reported in patent US20220289708A1, “SUBSTITUTED N-PHENYL URACILS, SALTS THEREOF AND THEIR USE AS HERBICIDAL AGENTS” (Bayer Aktiengesellschaft, priority 2019, published 2022).

Tests used:
Type in all cases: in vivo
[1] = tested on: Echinochloa crus-galli; test: Pre-emergence herbicidal action
How it was run: (§1)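 Percentages are visual ratings against untreated controls, where 100% means dead plants and 0% means no difference. Compounds were applied at 80 g/ha or lower to the soil over freshly sown seeds, then pots stayed in the greenhouse about 3 weeks.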

[2] = tested on: Abutilon theophrasti; test: Pre-emergence herbicidal action; conditions: application rate 20 g/ha
How it was run: as §1

[3] = tested on: Digitaria sanguinalis; test: Pre-emergence herbicidal action; conditions: application rate 20 g/ha
How it was run: as §1

[4] = tested on: Polygonum convolvulus; test: Pre-emergence herbicidal action; conditions: application rate 20 g/ha
How it was run: as §1

[5] = tested on: Veronica persica; test: Pre-emergence herbicidal action; conditions: application rate 20 g/ha
How it was run: as §1

[6] = tested on: Alopecurus myosuroides; test: Pre-emergence herbicidal action
How it was run: as §1

[7] = tested on: Lolium rigidum; test: Pre-emergence herbicidal action; conditions: application rate 80 g/ha
How it was run: as §1

[8] = tested on: Matricaria inodora; test: Pre-emergence herbicidal action; conditions: application rate 20 g/ha
How it was run: as §1

[9] = tested on: Viola tricolor; test: Pre-emergence herbicidal action; conditions: application rate 20 g/ha
How it was run: as §1

[10] = tested on: Amaranthus retroflexus; test: Pre-emergence herbicidal action; conditions: application rate 20 g/ha
How it was run: as §1

[11] = tested on: Setaria viridis; test: Pre-emergence herbicidal action; conditions: application rate 20 g/ha
How it was run: as §1

[12] = tested on: Pharbitis purpurea; test: Pre-emergence herbicidal action; conditions: application rate 20 g/ha
How it was run: as §1

[13] = tested on: Avena fatua; test: Pre-emergence herbicidal action
How it was run: as §1

[14] = tested on: Oryza sativa; test: Post-emergence crop plant compatibility; conditions: application rate 5 g/ha
How it was run: (§2)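 Greenhouse crop plants in sandy loam sprayed at one-leaf stage (2-3 weeks after sowing) with WP or EC formulations plus 0.5% additive, 600 l/ha water, at 5 g/ha or 20 g/ha. Damage scored visually after about 3 weeks as % versus untreated controls (100% = plants dead).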

[15] = tested on: Triticum aestivum; test: Post-emergence crop plant compatibility; conditions: application rate 5 g/ha
How it was run: as §2

[16] = tested on: Zea mays; test: Pre-emergence crop plant compatibility; conditions: application rate 20 g/ha
How it was run: (§3)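 Crop seeds sown in pots and covered with soil; WP or EC formulations sprayed on the soil surface as aqueous suspension/emulsion with 0.5% additive at 600 l/ha water, 20 g/ha. Greenhouse-grown about 3 weeks, then damage scored visually as % versus untreated controls (100% = plants dead).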

[17] = tested on: Triticum aestivum; test: Pre-emergence crop plant compatibility; conditions: application rate 20 g/ha
How it was run: as §3

[18] = tested on: Echinochloa crus-galli; test: Post-emergence herbicidal action; conditions: application rate 5 g/ha, rated visually after about 3 weeks vs untreated controls
How it was run: (§4)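 Percent activity, judged by eye about 3 weeks after treatment relative to untreated plants, ranges from 0% (as control) to 100% (plants dead). Foliar application at 20 g/ha and less was made at the one-leaf stage using a 600 l/ha aqueous spray containing 0.5% additive.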

[19] = tested on: Abutilon theophrasti; test: Post-emergence herbicidal action; conditions: application rate 5 g/ha, rated visually after about 3 weeks vs untreated controls
How it was run: as §4

[20] = tested on: Digitaria sanguinalis; test: Post-emergence herbicidal action; conditions: application rate 5 g/ha, rated visually after about 3 weeks vs untreated controls
How it was run: as §4

[21] = tested on: Veronica persica; test: Post-emergence herbicidal action; conditions: application rate 5 g/ha
How it was run: as §4

[22] = tested on: Amaranthus retroflexus; test: Post-emergence herbicidal action; conditions: application rate 5 g/ha, rated visually after about 3 weeks vs untreated controls
How it was run: as §4

[23] = tested on: Pharbitis purpurea; test: Post-emergence herbicidal action; conditions: application rate 5 g/ha, rated visually after about 3 weeks vs untreated controls
How it was run: as §4

[24] = tested on: Glycine max; test: Pre-emergence crop plant compatibility; conditions: application rate 20 g/ha, observed effect on crop vs untreated controls after about 3 weeks
How it was run: as §3

[25] = tested on: Polygonum convolvulus; test: Post-emergence herbicidal action; conditions: application rate 5 g/ha
How it was run: as §4

[26] = tested on: Alopecurus myosuroides; test: Post-emergence herbicidal action; conditions: application rate 5 g/ha, rated visually after about 3 weeks vs untreated controls
How it was run: as §4

[27] = tested on: Matricaria inodora; test: Post-emergence herbicidal action; conditions: application rate 5 g/ha, rated visually after about 3 weeks vs untreated controls
How it was run: as §4

[28] = tested on: Viola tricolor; test: Post-emergence herbicidal action; conditions: application rate 5 g/ha
How it was run: as §4

[29] = tested on: Setaria viridis; test: Post-emergence herbicidal action; conditions: application rate 5 g/ha, rated visually after about 3 weeks vs untreated controls
How it was run: as §4

Row | SMILES | Abutilon theophrasti (efficacy in %) [2] [%] | Digitaria sanguinalis (efficacy in %) [3] [%] | Polygonum convolvulus (efficacy in %) [4] [%] | Veronica persica (efficacy in %) [5] [%] | Lolium rigidum (efficacy in %) [7] [%] | Matricaria inodora (efficacy in %) [8] [%] | Viola tricolor (efficacy in %) [9] [%] | Amaranthus retroflexus (efficacy in %) [10] [%] | Setaria viridis (efficacy in %) [11] [%] | Pharbitis purpurea (efficacy in %) [12] [%] | Avena fatua (efficacy in %) ([13]; application rate 80 g/ha) [%] | Oryza sativa (efficacy in %) [14] [%] | Triticum aestivum (efficacy in %) [15] [%] | Triticum aestivum (efficacy in %) [17] [%] | Echinochloa crus-galli (efficacy in %) [18] [%] | Abutilon theophrasti (efficacy in %) [19] [%] | Digitaria sanguinalis (efficacy in %) [20] [%] | Veronica persica (efficacy in %) [21] [%] | Amaranthus retroflexus (efficacy in %) [22] [%] | Pharbitis purpurea (efficacy in %) [23] [%] | further results
1 | Cn1c(C(F)(F)F)cc(=O)n(-c2cc(Oc3cccnc3OCC(=O)OCCOCc3ccccc3)c(Cl)cc2F)c1=O [I.15-6] | 100 | 100 | 100 | 100 | 100 | 100 | 100 | 100 | 100 | 100 | 100 | 20 | 20 | 10 | 100 | 100 | 100 | 100 | 100 | 100 | Echinochloa crus-galli (efficacy in %) ([1]; application rate 80 g/ha): 100%; Alopecurus myosuroides (efficacy in %) ([6]; application rate 20 g/ha): 90%; Zea mays (efficacy in %) [16]: 0%
2 | Cn1c(C(F)(F)F)cc(=O)n(-c2cc(Oc3cccnc3OCC(=O)OCCOC(F)(F)F)c(Cl)cc2F)c1=O [I.15-41] | 100 | 100 | 100 | 100 | 100 | 100 | 100 | 100 | 100 | 100 | 90 | 20 | 20 | – | 100 | 100 | 100 | 100 | 100 | 100 | Echinochloa crus-galli (efficacy in %) ([1]; application rate 80 g/ha): 100%; Alopecurus myosuroides (efficacy in %) ([6]; application rate 80 g/ha): 100%; Glycine max (efficacy in %) [24]: 20%
3 | Cn1c(C(F)(F)F)cc(=O)n(-c2cc(Oc3cccnc3OCC(=O)OCC[Si](C)(C)C)c(Cl)cc2F)c1=O [I.15-211] | 100 | 100 | 100 | 100 | 100 | 100 | 100 | 100 | 100 | 80 | 80 | 0 | 0 | 0 | 100 | 100 | 100 | 100 | 100 | 80 | Echinochloa crus-galli (efficacy in %) ([1]; application rate 20 g/ha): 80%; Alopecurus myosuroides (efficacy in %) ([6]; application rate 80 g/ha): 100%; Zea mays (efficacy in %) [16]: 20%
4 | Cn1c(C(F)(F)F)cc(=O)n(-c2cc(Oc3cccnc3OCC(=O)OCC3NC(=O)NC3=O)c(Cl)cc2F)c1=O (centres unmarked) [I.15-280] | 100 | 100 | 100 | 100 | 100 | 100 | 100 | 100 | 100 | 90 | – | – | 20 | 10 | 80 | 100 | 100 | 100 | 100 | 100 | Echinochloa crus-galli (efficacy in %) ([1]; application rate 20 g/ha): 90%; Alopecurus myosuroides (efficacy in %) ([6]; application rate 20 g/ha): 90%; Avena fatua (efficacy in %) ([13]; application rate 20 g/ha): 80%; Glycine max (efficacy in %) [24]: 0%; Polygonum convolvulus (efficacy in %) [25]: 100%; Alopecurus myosuroides (efficacy in %) [26]: 90%; Matricaria inodora (efficacy in %) [27]: 90%; Viola tricolor (efficacy in %) [28]: 100%; Setaria viridis (efficacy in %) [29]: 100%
